{"source": "patent US9498546B2", "about": "“Synthesis and application of novel imaging agents conjugated to DPA 713 analogs for imaging inflammation” (THE JOHNS HOPKINS UNIVERSITY, priority 2012, dated 2016)", "system": "LPS-stimulated J774 macrophages (TSPO)", "experiment": "In vitro J774 murine macrophage uptake studies (fluorescence microscopy, with or without blocking)", "assay_type": "cell-based", "conditions": "40 nM probe, 1 hour of incubation", "procedure": "FIG. 4 is a series of photomicrographs (A-I) of J774 macrophages that were cultured in 8 well chamber slides to 80% confluence. LPS was then added to each well for 24 hours to stimulate the cells. […] The cells were returned to the incubator for either 1 hour or 24 hours. The solutions were then removed, the nuclei were labeled with Hoechst 33342 and the cells were briefly washed before mounting and viewing under a fluorescence microscope.\nIn vitro J774 murine macrophage uptake studies. The immortalized J774 murine macrophage-like cell line was cultured in RPMI1640+20% FBS+1% penicillin+ streptomycin media in 8-well chamber slides (Fisher Scientific) to approximately 80% confluence. The cells were then stimulated with 1 ng/mL of LPS (Sigma, E. coli 055:B5) for 24 hours prior to addition of the probes of the present invention to 40 nM final concentration. […] The cells were exposed to the fluorescent probes and blocking compounds for either 1 hour or 24 hours prior to exposing to 1 ng/mL of Hoechst 33342 dye (Invitrogen), followed by washing twice briefly with PBS, pH 7.5. The chambers were then removed and the slide mounted with Dako Cytomation aqueous mounting media and a glass coverslip. The cells were visualized using a Nikon 80i upright epifluorescence microscope equipped with a Nikon DS-QilMc darkfield CCD camera and processed using Nikon Image Software on an adjacent workstation. The dyes were excited using either a Nikon Intensilight C-HGFI lamp (IRDye680 and Hoechst) or a Sutter Instruments Co. (Novato, Calif.) LB/LB-30 xenon lamp (IRDye800).\nJ774 Cell Uptake Studies. J774 macrophages were cultured in 8 well chamber slides to 80% confluence. LPS was then added to each well for 24 hours to stimulate the cells. […] The cells were returned to the incubator for either 1 hour or 24 hours. The solutions were then removed, the nuclei were labeled with Hoechst 33342 and the cells were briefly washed before mounting and viewing under a fluorescence microscope. […] The tracer localization for both analogs is perinuclear and granular in appearance and is consistent with the gross distribution pattern of TSPO expression in other mononuclear cell-derived lines.", "data": [{"smiles": "CCN(CC)C(=O)Cc1c(-c2ccc(OCCNC(=O)CCCCC[N+]3=C(/C=C/C4=C(Oc5ccc(S(=O)(=O)O)cc5)C(=C/C=C5/N(CCCCS(=O)(=O)O)c6ccc(S(=O)(=O)O)cc6C5(C)C)/CCC4)C(C)(C)c4cc(S(=O)(=O)[O-])ccc43)cc2)nn2c(C)cc(C)nc12", "note": "[DPA-713-IRDye800CW, 1-(6-(2-(4-(3-(2-(diethylamino)-2-oxoethyl)-5,7-dimethylpyrazolo[1,5-a]pyrimidin-2-yl)phenoxy)ethylamino)-6-oxohexyl)-2-((E)-2-((E)-3-((E)-2-(3,3-dimethyl-5-sulfo-1-(4-sulfobutyl)indolin-2-ylidene)ethylidene)-2-(4-sulfophenoxyl)cyclohex-1-enyl)vinyl)-3,3-dimethyl-3H-indolium-5-sulfonate]", "values": [{"measurement": "Observable fluorescence signal (uptake)", "result": "almost no observable signal"}]}]}
